Patent US20230072683A1, “PYRIDO-PYRIMIDIN DERIVATIVES AND PHARMACEUTICAL COMPOSITION, FOR USE IN PREVENTING OR TREATING PI3 KINASE RELATED DISEASES, COMPRISING SAME AS ACTIVE INGREDIENT” (BORYUNG PHARMACEUTICAL CO., LTD, priority 2019, published 2023)
Where two headings read alike, the source gives them in different places.

Legend:
[1] = target: PI3K-δ (PI3K(p1108/p857) (h)) (Homo sapiens, UniProt O00329); experiment: Evaluation of inhibitory activity against PI3K-δ (HTRF kinase assay); type: biochemical; conditions: for inhibition at 0.01 µM: compound concentration 0.01 μM, read-out: EXP_VALUE(% Inhibition) PI3K-δ 0.01 μM; for inhibition at 0.1 µM: read-out: EXP_VALUE(% Inhibition) PI3K-δ 0.1 μM
Sequence of PI3K-δ (PI3K(p1108/p857) (h)) (O00329 whole entry, the tested form may be a part): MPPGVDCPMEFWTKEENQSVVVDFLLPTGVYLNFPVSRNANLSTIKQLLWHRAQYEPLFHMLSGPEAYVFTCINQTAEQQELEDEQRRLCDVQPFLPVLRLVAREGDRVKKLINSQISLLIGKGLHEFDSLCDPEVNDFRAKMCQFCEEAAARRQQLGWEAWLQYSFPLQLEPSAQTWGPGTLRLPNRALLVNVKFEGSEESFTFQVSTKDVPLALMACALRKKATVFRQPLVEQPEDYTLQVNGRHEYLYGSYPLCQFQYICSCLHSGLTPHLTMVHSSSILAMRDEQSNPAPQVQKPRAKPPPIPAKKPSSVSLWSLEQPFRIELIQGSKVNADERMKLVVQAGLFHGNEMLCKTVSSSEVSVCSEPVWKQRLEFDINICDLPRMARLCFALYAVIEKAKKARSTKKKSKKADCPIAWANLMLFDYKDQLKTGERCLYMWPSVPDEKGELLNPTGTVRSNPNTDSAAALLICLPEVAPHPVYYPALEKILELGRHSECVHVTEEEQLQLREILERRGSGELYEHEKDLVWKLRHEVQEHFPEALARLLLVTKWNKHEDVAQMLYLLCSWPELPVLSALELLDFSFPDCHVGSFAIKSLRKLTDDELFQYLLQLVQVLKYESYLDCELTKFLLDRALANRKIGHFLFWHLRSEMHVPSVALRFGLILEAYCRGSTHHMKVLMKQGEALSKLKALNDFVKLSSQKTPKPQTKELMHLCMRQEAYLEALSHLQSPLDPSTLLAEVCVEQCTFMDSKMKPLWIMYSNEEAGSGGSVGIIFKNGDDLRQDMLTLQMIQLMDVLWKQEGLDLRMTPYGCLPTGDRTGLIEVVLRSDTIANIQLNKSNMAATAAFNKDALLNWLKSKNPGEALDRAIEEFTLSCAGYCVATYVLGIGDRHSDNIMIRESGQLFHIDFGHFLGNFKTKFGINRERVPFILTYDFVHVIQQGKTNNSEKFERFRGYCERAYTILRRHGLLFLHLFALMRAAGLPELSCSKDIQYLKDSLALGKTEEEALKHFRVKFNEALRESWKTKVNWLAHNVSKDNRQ
Sequence of PI3K-δ (PI3K(p1108/p857) (h)) (P27986 whole entry partner, the tested form may be a part): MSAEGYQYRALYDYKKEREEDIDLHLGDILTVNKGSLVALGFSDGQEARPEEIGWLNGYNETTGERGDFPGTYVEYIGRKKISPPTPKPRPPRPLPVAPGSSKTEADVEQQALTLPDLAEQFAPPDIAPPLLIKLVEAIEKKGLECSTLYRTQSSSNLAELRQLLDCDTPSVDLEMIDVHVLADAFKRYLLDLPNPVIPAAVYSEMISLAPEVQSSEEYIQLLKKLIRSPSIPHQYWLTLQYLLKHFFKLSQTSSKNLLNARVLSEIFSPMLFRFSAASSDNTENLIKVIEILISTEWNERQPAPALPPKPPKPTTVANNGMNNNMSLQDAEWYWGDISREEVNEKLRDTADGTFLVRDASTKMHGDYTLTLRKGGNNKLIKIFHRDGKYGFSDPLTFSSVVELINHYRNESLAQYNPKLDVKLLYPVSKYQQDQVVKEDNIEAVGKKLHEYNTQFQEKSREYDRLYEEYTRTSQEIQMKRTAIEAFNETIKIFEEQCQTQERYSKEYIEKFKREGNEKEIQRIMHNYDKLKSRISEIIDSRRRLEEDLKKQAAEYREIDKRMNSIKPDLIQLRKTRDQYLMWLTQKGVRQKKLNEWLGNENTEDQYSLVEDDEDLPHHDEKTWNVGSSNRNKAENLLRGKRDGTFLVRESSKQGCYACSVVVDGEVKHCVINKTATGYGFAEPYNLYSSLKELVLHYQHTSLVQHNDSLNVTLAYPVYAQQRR
How it was run: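 HTRF read-out (665/620 nm ratio ×10000) used Eu-labelled anti-GST, GST-tagged GRP1 PH domain and streptavidin-allophycocyanin after EDTA/PIP3 stop.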

DNA-PK(h) = DNA-PK(h) (Homo sapiens, UniProt P78527); experiment: Evaluation of inhibitory activity against DNA-PK (HTRF kinase assay, GST-cMyc-p53 substrate); type: biochemical; conditions: for inhibition at 0.01 µM: compound concentration 0.01 μM, read-out: EXP_VALUE(% Inhibition) DNA-PK(h) 0.01 μM; for inhibition at 0.1 µM: read-out: EXP_VALUE(% Inhibition) DNA-PK(h) 0.1 μM
How it was run: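 p53 Ser15 phosphorylation by human DNA-PK was measured by time-resolved FRET ratio (665/620 nm ×10000) using Eu-labelled anti-phospho-Ser15 and d2 anti-GST antibodies. Substrate GST-cMyc-p53 at 50 μM; Mg/ATP-initiated, 30 min at room temperature, EDTA stop.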

inhibition at 0.01 µM [1] [%]	inhibition at 0.1 µM ([1]; compound concentration 0.1 μM) [%]	inhibition at 0.01 µM (DNA-PK(h)) [%]	inhibition at 0.1 µM (DNA-PK(h); compound concentration 0.1 μM) [%]	inhibition at 0.1 µM ([1]; compound at 0.1 μM) [%]	inhibition at 0.1 µM (DNA-PK(h); compound at 0.1 μM) [%]	Compound
46	78	18	56	–	–	C[C@H](Nc1ncnc2[nH]ccc(=O)c12)c1c(Cl)c2cccc(N3CCN(c4ccccc4O)CC3)c2c(=O)n1-c1ccccc1 [Example 78, (S)-4-((1-(4-chloro-8-(4-(2-hydroxyphenyl)piperazin-1-yl)-1-oxo-2-phenyl-1,2-dihydroisoquinolin-3-yl)ethyl)amino)pyrido[2,3-d]pyrimidin-5(8H)-one]
82	92	56	86	–	–	Cc1cc(C#N)ccc1-c1cccc2c(Cl)c([C@H](C)Nc3ncnc4[nH]ccc(=O)c34)n(-c3ccccc3)c(=O)c12 [Example 67, (S)-4-(4-chloro-1-oxo-3-(1-((5-oxo-5,8-dihydropyrido[2,3-d]pyrimidin-4-yl)amino)ethyl)-2-phenyl-1,2-dihydroisoquinolin-8-yl)-3-methylbenzonitrile]
–	–	–	–	7	3	C[C@H](Nc1ncnc2[nH]ccc(=O)c12)c1c(Cl)c2cccc(Sc3ccc(F)cc3)c2c(=O)n1-c1ccccc1 [Example 398, (S)-4-((1-(4-chloro-8-((4-fluorophenyl)thio)-1-oxo-2-phenyl-1,2-dihydroisoquinolin-3-yl)ethyl)amino)pyrido[2,3-d]pyrimidin-5(8H)-one]
51	94	74	96	–	–	C[C@H](Nc1ncnc2[nH]ccc(=O)c12)c1c(Cl)c2cccc(-c3ccc(C(=O)N(C)C)cc3)c2c(=O)n1-c1ccccc1 [Example 139, (S)-4-(4-chloro-1-oxo-3-(1-((5-oxo-5,8-dihydropyrido[2,3-d]pyrimidin-4-yl)amino)ethyl)-2-phenyl-1,2-dihydroisoquinolin-8-yl)-N, N-dimethylbenzamide]
9	–	3	–	–	–	COc1cnc(-n2ccc(=O)c3c(N[C@@H](C)c4c(Cl)c5ccccc5c(=O)n4-c4ccccc4)ncnc32)nc1 [Example 43, (S)-4-((1-(4-chloro-1-oxo-2-phenyl-1,2-dihydroisoquinolin-3-yl)ethyl)amino)-8-(5-methoxypyrimidin-2-yl)pyrido[2,3-d]pyrimidin-5(8H)-one]
10	–	2	–	–	–	COc1cc(-c2cccc3c(Cl)c([C@H](C)Nc4ncnc5[nH]ccc(=O)c45)n(-c4ccccc4)c(=O)c23)ncn1 [Example 45, (S)-4-((1-(4-chloro-8-(6-methoxypyrimidin-4-yl)-1-oxo-2-phenyl-1,2-dihydroisoquinolin-3-yl)ethyl)amino)pyrido[2,3-d]pyrimidin-5(8H)-one]
99	102	7	66	–	–	C[C@H](Nc1ncnc2[nH]ccc(=O)c12)c1c(Cl)c2cccc(-c3cc(O)cc(F)c3)c2c(=O)n1-c1ccccc1 [Example 108, (S)-4-((1-(4-chloro-8-(3-fluoro-5-hydroxyphenyl)-1-oxo-2-phenyl-1,2-dihydroisoquinolin-3-yl)ethyl)amino)pyrido[2,3-d]pyrimidin-5(8H)-one]
66	94	58	93	–	–	C[C@H](Nc1ncnc2[nH]ccc(=O)c12)c1c(Cl)c2cccc(-c3cccc(F)c3)c2c(=O)n1-c1ccccc1 [Example 123, (S)-4-((1-(4-chloro-8-(3-fluorophenyl)-1-oxo-2-phenyl-1,2-dihydroisoquinolin-3-yl)ethyl)amino)pyrido[2,3-d]pyrimidin-5(8H)-one]
17	51	-4	24	–	–	C[C@H](Nc1ncnc2[nH]ccc(=O)c12)c1c(Cl)c2cccc(N3CCN(c4ccccc4)CC3)c2c(=O)n1-c1ccccc1 [Example 326, (S)-4-((1-(4-chloro-1-oxo-2-phenyl-8-(4-phenylpiperazin-1-yl)-1,2-dihydroisoquinolin-3-yl)ethyl)amino)pyrido[2,3-d]pyrimidin-5(8H)-one]
25.1	50.9	15.6	73.6	–	–	Cc1ccc(-c2cccc3c(Cl)c([C@H](C)Nc4ncnc5[nH]ccc(=O)c45)n(-c4ccccc4)c(=O)c23)cc1 [Example 255, (S)-4-((1-(4-chloro-1-oxo-2-phenyl-8-(p-tolyl)-1,2-dihydroisoquinolin-3-yl)ethyl)amino)pyrido[2,3-d]pyrimidin-5(8H)-one]
81	–	12	–	–	–	C[C@H](Nc1ncnc2[nH]ccc(=O)c12)c1c(Cl)c2cccc(C(=O)NCC3CC3)c2c(=O)n1-c1ccccc1 [Example 283, (S)-4-chloro-N-(cyclopropylmethyl)-1-oxo-3-(1-((5-oxo-5,8-dihydropyrido[2,3-d]pyrimidin-4-yl)amino)ethyl)-2-phenyl-1,2-dihydroisoquinoline-8-carboxamide]
–	–	–	–	26	48	C[C@H](Nc1ncnc2[nH]ccc(=O)c12)c1c(Cl)c2cccc(Sc3nccs3)c2c(=O)n1-c1ccccc1 [Example 417, (S)-4-((1-(4-chloro-1-oxo-2-phenyl-8-(thiazol-2-ylthio)-1,2-dihydroisoquinolin-3-yl)ethyl)amino)pyrido[2,3-d]pyrimidin-5(8H)-one]
46.8	77.1	39.8	84.3	–	–	C[C@H](Nc1ncnc2[nH]ccc(=O)c12)c1c(Cl)c2cccc(C#Cc3nccs3)c2c(=O)n1-c1ccccc1 [Example 312, (S)-4-((1-(4-chloro-1-oxo-2-phenyl-8-(thiazol-2-ylethynyl)-1,2-dihydroisoquinolin-3-yl)ethyl)amino)pyrido[2,3-d]pyrimidin-5(8H)-one]
74	95	25	74	–	–	C[C@H](Nc1ncnc2[nH]ccc(=O)c12)c1c(Cl)c2cccc(-c3cc4ccccc4o3)c2c(=O)n1-c1ccccc1 [Example 6, (S)-4-((1-(8-(benzofuran-2-yl)-4-chloro-1-oxo-2-phenyl-1,2-dihydroisoquinolin-3-yl)ethyl)amino)pyrido[2,3-d]pyrimidin-5(8H)-one]
96	–	29	–	–	–	C[C@H](Nc1ncnc2[nH]ccc(=O)c12)c1c(Cl)c2cccc(C(=O)NC3COC3)c2c(=O)n1-c1ccccc1 [Example 276, (S)-4-chloro-N-(oxetan-3-yl)-1-oxo-3-(1-((5-oxo-5,8-dihydropyrido[2,3-d]pyrimidin-4-yl)amino)ethyl)-2-phenyl-1,2-dihydroisoquinoline-8-carboxamide]
42	94	56	89	–	–	C[C@H](Nc1ncnc2[nH]ccc(=O)c12)c1c(Cl)c2cccc(B3OC(C)(C)C(C)(C)O3)c2c(=O)n1-c1ccccc1 [Example 2, (S)-4-((1-(4-chloro-1-oxo-2-phenyl-8-(4,4,5,5-tetramethyl-1,3,2-dioxaborolan-2-yl)-1,2-dihydroisoquinolin-3-yl)ethyl)amino)pyrido[2,3-d]pyrimidin-5(8H)-one]
33	81	32	75	–	–	C[C@H](Nc1ncnc2[nH]ccc(=O)c12)c1c(Cl)c2cccc(-c3ccc(N4CCN(C(=O)OC(C)(C)C)CC4)cc3)c2c(=O)n1-c1ccccc1 [Example 138, tert-butyl(S)-4-(4-(4-chloro-1-oxo-3-(1-((5-oxo-5,8-dihydropyrido[2,3-d]pyrimidin-4-yl)amino)ethyl)-2-phenyl-1,2-dihydroisoquinolin-8-yl)phenyl)piperazin-1-carboxylate]
93	97	57	91	–	–	Cc1ncccc1-c1cccc2c(Cl)c([C@H](C)Nc3ncnc4[nH]ccc(=O)c34)n(-c3ccccc3)c(=O)c12 [Example 110, (S)-4-((1-(4-chloro-8-(2-methylpyridin-3-yl)-1-oxo-2-phenyl-1,2-dihydroisoquinolin-3-yl)ethyl)amino)pyrido[2,3-d]pyrimidin-5(8H)-one]
12	–	101	–	–	–	COc1cnc(-c2cccc3c(Cl)c([C@H](C)Nc4ncnc5[nH]ccc(=O)c45)n(-c4ccccc4)c(=O)c23)nc1 [Example 30, (S)-4-((1-(4-chloro-8-(5-methoxypyrimidin-2-yl)-1-oxo-2-phenyl-1,2-dihydroisoquinolin-3-yl)ethyl)amino)pyrido[2,3-d]pyrimidin-5(8H)-one]
35	–	60	–	–	–	CCOc1c(OC)ccc(-c2cccc3c(Cl)c([C@H](C)Nc4ncnc5[nH]ccc(=O)c45)n(-c4ccccc4)c(=O)c23)c1F [Example 199, (S)-4-((1-(4-chloro-8-(3-ethoxy-2-fluoro-4-methoxyphenyl)-1-oxo-2-phenyl-1,2-dihydroisoquinolin-3-yl)ethyl)amino)pyrido[2,3-d]pyrimidin-5(8H)-one]
